Our source for the IC50 values is ChEMBL document CHEMBL1141972, “4'C-ethynyl-thymidine acts as a chain terminator during DNA-synthesis catalyzed by HIV-1 reverse transcriptase” (Bioorg Med Chem Lett, 2005).

The target in this assay is Human immunodeficiency virus type 1 reverse transcriptase (Human immunodeficiency virus 1, UniProt Q72547). Put plainly: Inhibitory concentration against human immunodeficiency virus type 1 reverse transcriptase.

One may read the IC50 as the concentration at which inhibition is half-maximal. For the molecule `C#C[C@]1(COP(=O)(O)OP(=O)(O)OP(=O)(O)O)O[C@@H](n2cc(C)c(=O)[nH]c2=O)C[C@@H]1O`, the IC50 was determined as 3280 nM. Next, `Cc1cn([C@H]2C[C@H](N=[N+]=[N-])[C@@H](CO[P@](=O)(O)O[P@](=O)(O)OP(=O)(O)O)O2)c(=O)[nH]c1=O` [ZIDOVUDINE TRIPHOSPHATE]: 2100 nM.
